Measured values published in ChEMBL document CHEMBL3217535, “Synthesis and biological activity of furanylindazoles as inhibitors of hypoxia inducible factor (HIF)-1 transcriptional activity” (Medchemcomm, 2012).
Calls of active or inactive are those of the source. No cut-off for these calls is given here.

What was measured:
[1] = Inhibition of HIF-1 (unknown origin) expressed in human HeLa cells after 12 hrs by HRE luciferase reporter gene assay; assay type: cell-based
Mus musculus [2] = assay: In vivo inhibition of HIF1 transcriptional activity in nude mouse xenografted with human SUIT2/HRE-luc cells at 10 mg/kg, ip measured after 24 hrs by bioluminescence assay; assay type: functional, organism-based; set-up: dose 10 mg/kg
NCI-H226 = assay: Growth inhibition of human NCI-H226 cells by SRB assay; assay type: functional
[3] = Growth inhibition of human RXF631L cells by SRB assay; assay type: functional; settings: for GI50: RXF 631
Mus musculus [4] = assay: In vivo inhibition of HIF1 transcriptional activity in nude mouse xenografted with human SUIT2/HRE-luc cells at 10 mg/kg, ip measured after 12 hrs by bioluminescence assay; assay type: functional, organism-based; set-up: dose 10 mg/kg
[5] = Growth inhibition of human HBC4 cells by SRB assay; assay type: functional; settings: HBC4, read-out: pGI50 (converted)
[6] = Growth inhibition of human BSY1 cells by SRB assay; assay type: functional; settings: BSY-1
[7] = Growth inhibition of human HBC5 cells by SRB assay; assay type: functional
MCF7 = assay: Growth inhibition of human MCF7 cells by SRB assay; assay type: functional
MDA-MB-231 = assay: Growth inhibition of human MDA-MB-231 cells by SRB assay; assay type: functional
U-251 = assay: Growth inhibition of human U251 cells by SRB assay; assay type: functional
SF-268 = assay: Growth inhibition of human SF268 cells by SRB assay; assay type: functional; settings: SF-268, read-out: pGI50 (converted)
[8] = Growth inhibition of human SF295 cells by SRB assay; assay type: functional; settings: SF-295
[9] = Growth inhibition of human SF539 cells by SRB assay; assay type: functional; settings: SF-539, read-out: pGI50 (converted)
SNB-75 = assay: Growth inhibition of human SNB75 cells by SRB assay; assay type: functional; settings: SNB-75, read-out: pGI50 (converted)
[10] = Growth inhibition of human SNB78 cells by SRB assay; assay type: functional; settings: SNB-78, read-out: pGI50 (converted)
[11] = Growth inhibition of human HCC2998 cells by SRB assay; assay type: functional; settings: HCC 2998, read-out: pGI50 (converted)
KM12 = assay: Growth inhibition of human KM12 cells by SRB assay; assay type: functional
HT-29 = assay: Growth inhibition of human HT-29 cells by SRB assay; assay type: functional; settings: HT-29, read-out: pGI50 (converted)
[12] = Growth inhibition of human HCT15 cells by SRB assay; assay type: functional; settings: HCT-15
HCT-116 = assay: Growth inhibition of human HCT116 cells by SRB assay; assay type: functional
NCI-H23 = assay: Growth inhibition of human NCI-H23 cells by SRB assay; assay type: functional; settings: NCI-H23, read-out: pGI50 (converted)
NCI-H522 = assay: Growth inhibition of human NCI-H522 cells by SRB assay; assay type: functional
NCI-H460 = assay: Growth inhibition of human NCI-H460 cells by SRB assay; assay type: functional
A549 = assay: Growth inhibition of human A549 cells by SRB assay; assay type: functional
[13] = Growth inhibition of human DMS273 cells by SRB assay; assay type: functional; settings: DMS-273
[14] = Growth inhibition of human DMS114 cells by SRB assay; assay type: functional; settings: DMS-114
[15] = Growth inhibition of human LOXIMVI cells by SRB assay; assay type: functional; settings: LOX IMVI
[16] = Growth inhibition of human OVCAR3 cells by SRB assay; assay type: functional; settings: OVCAR-3
[17] = Growth inhibition of human OVCAR4 cells by SRB assay; assay type: functional; settings: OVCAR-4, read-out: pGI50 (converted)
[18] = Growth inhibition of human OVCAR5 cells by SRB assay; assay type: functional; settings: OVCAR-5
[19] = Growth inhibition of human OVCAR8 cells by SRB assay; assay type: functional; settings: OVCAR-8
SK-OV-3 = assay: Growth inhibition of human SKOV3 cells by SRB assay; assay type: functional
ACHN = assay: Growth inhibition of human ACHN cells by SRB assay; assay type: functional
St-4 = assay: Growth inhibition of human St-4 cells by SRB assay; assay type: functional; settings: St-4, read-out: pGI50 (converted)
[20] = Growth inhibition of human MKN1 cells by SRB assay; assay type: functional; settings: MKN-1, read-out: pGI50 (converted)
[21] = Growth inhibition of human MKN7 cells by SRB assay; assay type: functional; settings: MKN-7
[22] = Growth inhibition of human MKN28 cells by SRB assay; assay type: functional; settings: MKN-28
[23] = Growth inhibition of human MKN45 cells by SRB assay; assay type: functional; settings: MKN-45
[24] = Growth inhibition of human MKN74 cells by SRB assay; assay type: functional; settings: MKN-74, read-out: pGI50 (converted)
DU-145 = assay: Growth inhibition of human DU145 cells by SRB assay; assay type: functional; settings: DU-145, read-out: pGI50 (converted)
PC-3 = assay: Growth inhibition of human PC3 cells by SRB assay; assay type: functional
[25] = Drug uptake in nucleus of human RXF631L cells azide-Alexa 488-based fluorescent microscopy; assay type: ADME
[26] = Drug uptake in nucleus of human NCI-H226 cells azide-Alexa 488-based fluorescent microscopy; assay type: ADME, cell-based
[27] = Drug uptake in cytoplasm of human NCI-H226 cells azide-Alexa 488-based fluorescent microscopy; assay type: ADME, cell-based
[28] = Drug uptake in cytoplasm of human RXF631L cells azide-Alexa 488-based fluorescent microscopy; assay type: ADME
[29] = Drug uptake in granular vesicle of human RXF631L cells azide-Alexa 488-based fluorescent microscopy; assay type: ADME
[30] = Drug uptake in granular vesicle of human MKN1 cells azide-Alexa 488-based fluorescent microscopy; assay type: ADME, cell-based; settings: mkn-1
[31] = Drug uptake in granular vesicle of human NCI-H226 cells azide-Alexa 488-based fluorescent microscopy; assay type: ADME, cell-based

[N-]=[N+]=Nc1ccc(Cn2nc(-c3ccc(CO)o3)c3ccccc32)cc1
IC50 [1]: 1.24 µM

COc1ccc(Cn2nc(-c3ccc(CO)o3)c3ccccc32)cc1
IC50 [1]: 0.97 µM

C#CC(O)c1ccc(-c2nn(Cc3ccccc3)c3ccccc23)o1 (centres undefined)
IC50 [1]: > 30 µM

OCc1ccc(-c2nn(Cc3ccccc3F)c3ccccc23)o1
IC50 [1]: 0.26 µM

OCc1ccc(-c2nn(Cc3ccc(Cl)cc3)c3ccccc23)o1
IC50 [1]: 2.8 µM

N#Cc1ccc(Cn2nc(-c3ccc(CO)o3)c3ccccc32)cc1
IC50 [1]: 0.27 µM

OCc1ccc(-c2nn(Cc3ccc(F)cc3)c3ccccc23)o1
IC50 [1]: 0.53 µM

OCc1ccc(-c2nn(Cc3ccncc3)c3ccccc23)o1
IC50 [1]: 0.83 µM

OCc1ccc(-c2nn(Cc3cccc(F)c3)c3ccccc23)o1
IC50 [1]: 0.48 µM

OCc1ccc(-c2nn(Cc3ccc(-c4ccccc4)cc3)c3ccccc23)o1
IC50 [1]: 3.3 µM

OCc1ccc(-c2nn(Cc3ccccc3)c3ccccc23)o1
IC50 [1]: 2 µM | inhibition (Mus musculus [2]): inactive | GI50 (NCI-H226): 0.224 µM | CC50 (NCI-H226; read-out: pLC50 (the source's name) (converted)): 9.77 µM | TGI (NCI-H226; read-out: pTGI (converted)): 0.661 µM | GI50 [3]: 0.158 µM | TGI ([3]; RXF 631, read-out: pTGI (converted)): 0.525 µM

OCc1ccc(-c2nn(Cc3c(F)c(F)c(F)c(F)c3F)c3ccccc23)o1
IC50 [1]: 0.18 µM

O=Cc1ccc(-c2nn(Cc3ccccc3)c3ccccc23)o1
IC50 [1]: 9 µM

C#CCOCc1ccc(-c2nn(Cc3ccccc3)c3ccccc23)o1
IC50 [1]: 7 µM

OCc1ccc(-c2nn(Cc3ccccc3C(F)(F)F)c3ccccc23)o1
IC50 [1]: 13.9 µM

OCc1ccc(-c2nn(Cc3cccnc3)c3ccccc23)o1
IC50 [1]: 0.46 µM

OCc1ccc(-c2nn(Cc3ccccc3Cl)c3ccccc23)o1
IC50 [1]: 0.65 µM

OCc1ccc(-c2nn(Cc3ccc(F)cc3F)c3ccccc23)o1
IC50 [1]: 0.31 µM

OCc1ccc(-c2nn(Cc3c(F)cccc3F)c3ccccc23)o1
IC50 [1]: 0.1 µM | inhibition (Mus musculus [4]): Active | inhibition (Mus musculus [2]): inactive | GI50 [5]: > 100 µM | GI50 [6]: 29.5 µM | GI50 [7]: 30.2 µM | GI50 (MCF7): 38 µM | GI50 (MDA-MB-231): 25.1 µM | GI50 (U-251): 95.5 µM | GI50 (SF-268): > 100 µM | GI50 [8]: 49 µM | GI50 [9]: > 100 µM | GI50 (SNB-75): > 100 µM | GI50 [10]: > 100 µM | GI50 [11]: > 100 µM | GI50 (KM12): 79.4 µM | GI50 (HT-29): > 100 µM | GI50 [12]: 41.7 µM | GI50 (HCT-116): 58.9 µM | GI50 (NCI-H23): > 100 µM | GI50 (NCI-H226): 0.0513 µM | GI50 (NCI-H522): 17.8 µM | GI50 (NCI-H460): 41.7 µM | GI50 (A549): 66.1 µM | GI50 [13]: 50.1 µM | GI50 [14]: 41.7 µM | GI50 [15]: 24.5 µM | GI50 [16]: 75.9 µM | GI50 [17]: > 100 µM | GI50 [18]: 72.4 µM | GI50 [19]: 77.6 µM | GI50 (SK-OV-3): 53.7 µM | GI50 [3]: 0.0447 µM | GI50 (ACHN): 74.1 µM | GI50 (St-4): > 100 µM | GI50 [20]: > 100 µM | GI50 [21]: 36.3 µM | GI50 [22]: 51.3 µM | GI50 [23]: 24 µM | GI50 [24]: > 100 µM | GI50 (DU-145): > 100 µM | GI50 (PC-3): 43.7 µM

OCc1ccc(-c2nn(Cc3ccccn3)c3ccccc23)o1
IC50 [1]: 0.3 µM

OCc1ccc(-c2nn(Cc3ccc(C(F)(F)F)cc3)c3ccccc23)o1
IC50 [1]: 9.4 µM

C#CCNc1ccc(Cn2nc(-c3ccc(CO)o3)c3ccccc32)cc1
IC50 [1]: 0.61 µM | Drug uptake [25]: Active | Drug uptake [26]: Active | Drug uptake [27]: Active | Drug uptake [28]: Active | Drug uptake [29]: Active | Drug uptake [30]: Active | Drug uptake [31]: Not Active

[N-]=[N+]=NCc1ccc(Cn2nc(-c3ccc(CO)o3)c3ccccc32)cc1
IC50 [1]: 0.7 µM

OCc1ccc(-c2nn(Cc3c(F)c(F)cc(F)c3F)c3ccccc23)o1
IC50 [1]: 0.07 µM | inhibition (Mus musculus [2]): inactive
